Values of other authors, collected in patent US12394502B2, “Method for predicting HLA-binding peptides using protein structural features” (The General Hospital Corporation, priority 2019, dated 2025).

What was measured:
[1] = tested on: advanced hormone refractory prostate cancer patients; settings: personalized vaccination alone or combined with a low dose of estramustine
[2] = tested on: Stage IV Melanoma Patients; settings: temozolomide combined with peptide vaccination
[3] = more than 25 clinical trials
[4] = tested on: ovarian carcinoma patients

Compound: C[C@]12CC[C@@H]3c4ccc(OC(=O)N(CCCl)CCCl)cc4CC[C@H]3[C@@H]1CC[C@@H]2O [estramustine]
- patients with >50% decrease in serum prostate specific antigen (PSA) [1]: 54%

Compound: Cn1nnc2c(C(N)=O)ncn2c1=O [temozolomide]
- toxicity [2]: low toxicity

Compound: Polyinosinic-Polycytidylic Acid-poly-L-lysine Carboxymethylcellulose [poly-ICLC]
- safety (healthy human volunteers; human volunteer study): safe
- differential expression of genes versus placebo (healthy human volunteers; one single s.c. administration, 8 subjects versus 4 placebo, whole blood): up to 212 genes
- toxicity profile [3]: relatively benign toxicity profile
- generation of NY-ESO-1-specific CD4+ and CD8+ T cell and antibody responses ([4]; 1.4 mg poly-ICLC and Montanide added to OLP, compared to OLP alone or OLP and Montanide, subcutaneous): markedly enhanced
- patients showing induction of CD4+ and CD8+ T cell, as well as antibody responses to the peptide ([4]; poly-ICLC in combination with NY-ESO-1 peptide vaccine (in addition to Montanide)): > 90%
